These results are taken from paper PMC3953731 (FEBS Open Bio, 2014).

Molecules are shown by their SMILES. Read-outs that look alike come from different tables or passages of the source.

The target in assay [1] is T1, Ima1p (Saccharomyces cerevisiae, UniProt P53051). Put plainly: Inhibition by maltose of isomaltose hydrolysis. The assay is classed as biochemical.
In assay [2] the target is T2, Ima5p (Saccharomyces cerevisiae, UniProt P40884).
T2 sequence (P40884 1-581): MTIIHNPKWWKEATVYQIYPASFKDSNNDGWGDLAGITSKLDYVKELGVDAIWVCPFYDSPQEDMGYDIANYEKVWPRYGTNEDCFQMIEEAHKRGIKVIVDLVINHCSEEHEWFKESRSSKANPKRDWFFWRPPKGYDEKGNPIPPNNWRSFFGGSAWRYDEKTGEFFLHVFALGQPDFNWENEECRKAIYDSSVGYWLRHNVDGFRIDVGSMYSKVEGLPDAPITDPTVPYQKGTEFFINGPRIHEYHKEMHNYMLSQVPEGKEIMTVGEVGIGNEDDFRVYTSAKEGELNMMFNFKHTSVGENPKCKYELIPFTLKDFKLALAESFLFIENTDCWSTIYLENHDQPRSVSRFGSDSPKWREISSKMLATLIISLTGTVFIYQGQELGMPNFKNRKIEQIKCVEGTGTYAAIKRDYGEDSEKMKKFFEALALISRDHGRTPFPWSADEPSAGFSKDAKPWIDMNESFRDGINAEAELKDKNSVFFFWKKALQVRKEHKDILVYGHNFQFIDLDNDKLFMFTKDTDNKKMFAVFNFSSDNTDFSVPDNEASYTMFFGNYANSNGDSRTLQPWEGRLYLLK
As to the kind of experiment: Substrate specificity of purified isomaltase. The assay is classed as biochemical. Particulars: 100 mM substrate (pNPG 5 mM), citrate–potassium phosphate buffer, pH 7, 30 °C.

Another assay has as its target Ima2p (Saccharomyces cerevisiae, UniProt Q08295). As to the kind of experiment: Substrate specificity of purified isomaltase. Format: biochemical. The settings on record: 100 mM substrate (pNPG 5 mM), citrate–potassium phosphate buffer, pH 7, 30 °C.
For assay [3], the system named is the four isomaltases (Ima1p, Ima2p, Ima3p, Ima5p). Put plainly: Activity of the isomaltases on substrates. Format: biochemical, Saccharomyces cerevisiae. The settings on record: all Ima proteins.
The target in assay [4] is T2, Ima5p. Put plainly: Inhibition by maltose of isomaltose hydrolysis. Format: biochemical. The settings on record: isomaltose up to 50 mM.
The target of a further assay is Ima3p (Saccharomyces cerevisiae, UniProt P0CW40). Put plainly: Substrate specificity of purified isomaltase. Format: biochemical. The settings on record: 100 mM substrate (pNPG 5 mM), citrate–potassium phosphate buffer, pH 7, 30 °C.
Assay [5] deals with T1, Ima1p. As to the kind of experiment: Substrate specificity of purified isomaltase. Format: biochemical. Particulars: 100 mM substrate (pNPG 5 mM), citrate–potassium phosphate buffer, pH 7, 30 °C.
Assay [6] has as its target T1, Ima1p. The settings on record: isomaltose 50–500 mM; cited from earlier work.
The subject of assay [7] is the four isomaltases (Ima proteins). As to the kind of experiment: Effect of compounds on melting temperature of isomaltases. Particulars: presence of maltose, results not shown. Also on record: species or system Saccharomyces cerevisiae.

T1 sequence (P53051 whole entry): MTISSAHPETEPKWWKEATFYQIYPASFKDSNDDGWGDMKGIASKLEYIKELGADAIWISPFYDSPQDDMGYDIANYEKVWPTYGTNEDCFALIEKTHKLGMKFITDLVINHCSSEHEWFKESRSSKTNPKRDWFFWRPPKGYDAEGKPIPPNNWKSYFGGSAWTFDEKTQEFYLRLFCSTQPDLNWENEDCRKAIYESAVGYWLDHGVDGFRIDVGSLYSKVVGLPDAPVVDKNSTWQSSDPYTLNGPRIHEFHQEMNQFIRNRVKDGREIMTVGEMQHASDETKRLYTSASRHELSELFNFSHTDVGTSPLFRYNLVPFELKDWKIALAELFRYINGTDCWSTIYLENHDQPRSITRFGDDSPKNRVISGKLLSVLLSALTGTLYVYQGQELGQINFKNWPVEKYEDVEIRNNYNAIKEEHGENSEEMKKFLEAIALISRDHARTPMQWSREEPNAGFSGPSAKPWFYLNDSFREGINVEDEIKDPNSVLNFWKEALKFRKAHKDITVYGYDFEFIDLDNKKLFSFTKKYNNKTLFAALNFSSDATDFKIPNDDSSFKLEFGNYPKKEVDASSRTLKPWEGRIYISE
Chain of Ima3p (P0CW40 whole entry): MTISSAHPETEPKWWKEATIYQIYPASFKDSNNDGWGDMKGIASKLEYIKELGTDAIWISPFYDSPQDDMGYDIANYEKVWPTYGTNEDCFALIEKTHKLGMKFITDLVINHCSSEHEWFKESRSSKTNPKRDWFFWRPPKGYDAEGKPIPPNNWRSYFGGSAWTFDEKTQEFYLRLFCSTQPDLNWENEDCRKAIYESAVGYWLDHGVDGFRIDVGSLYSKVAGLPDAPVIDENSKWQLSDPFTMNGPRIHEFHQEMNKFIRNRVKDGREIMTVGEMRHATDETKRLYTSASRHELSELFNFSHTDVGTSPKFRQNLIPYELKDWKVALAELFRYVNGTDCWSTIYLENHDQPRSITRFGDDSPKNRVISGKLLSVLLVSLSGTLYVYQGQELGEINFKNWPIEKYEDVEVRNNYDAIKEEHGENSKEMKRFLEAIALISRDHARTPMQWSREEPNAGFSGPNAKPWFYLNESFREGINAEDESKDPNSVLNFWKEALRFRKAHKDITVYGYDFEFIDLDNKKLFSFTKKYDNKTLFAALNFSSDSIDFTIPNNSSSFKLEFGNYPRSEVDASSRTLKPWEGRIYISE
Chain of Ima2p (Q08295 whole entry): as the sequence (P0CW40 whole entry) above, with T54A, L240P, R279Q counted along it

`OC[C@H]1O[C@H](O[C@H]2[C@H](O)[C@@H](O)[C@H](O)O[C@@H]2CO)[C@H](O)[C@@H](O)[C@@H]1O` [Maltose, O-α-D-Glucosyl-(1→4)-α-D-glucose]: the type of inhibition entry on Ima1p [1] (at high substrate concentration) is recorded as “uncompetitive inhibition”; at Ima1p [1] (at low substrate concentration), “competitive inhibition”; at Ima5p [4], “mixed inhibition”; on Ima1p [6] it was “competitive inhibitor”. The Specific activities at Ima5p [2], on Ima2p, on Ima3p and at Ima1p [5] was 0 µmol/min/mg throughout. In assay [3], the “activity on the substrate” value is “totally inactive”. Also, the “effect on melting temperature” value in assay [7] was “did not affect the melting temperature”.
